Experimental data as given in publication PMC6934184, “Selective DNA-PKcs inhibition extends the therapeutic index of localized radiotherapy and chemotherapy” (The Journal of Clinical Investigation, 2019).

Target: T1, SRC (Homo sapiens, UniProt P12931)
T1 construct: purchased Thermo Fisher Scientific (Life Technologies) SelectScreen
Assay: SelectScreen Z'LYTE
Assay type: biochemical
In short: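 SelectScreen broad panel; activity (Z'LYTE, Adapta) plus binding formats. ATP: Km app for CSF1R Z'LYTE; 10 for CAMK1 Adapta. Readout = % per kinase.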

T1 sequence (P12931 whole entry): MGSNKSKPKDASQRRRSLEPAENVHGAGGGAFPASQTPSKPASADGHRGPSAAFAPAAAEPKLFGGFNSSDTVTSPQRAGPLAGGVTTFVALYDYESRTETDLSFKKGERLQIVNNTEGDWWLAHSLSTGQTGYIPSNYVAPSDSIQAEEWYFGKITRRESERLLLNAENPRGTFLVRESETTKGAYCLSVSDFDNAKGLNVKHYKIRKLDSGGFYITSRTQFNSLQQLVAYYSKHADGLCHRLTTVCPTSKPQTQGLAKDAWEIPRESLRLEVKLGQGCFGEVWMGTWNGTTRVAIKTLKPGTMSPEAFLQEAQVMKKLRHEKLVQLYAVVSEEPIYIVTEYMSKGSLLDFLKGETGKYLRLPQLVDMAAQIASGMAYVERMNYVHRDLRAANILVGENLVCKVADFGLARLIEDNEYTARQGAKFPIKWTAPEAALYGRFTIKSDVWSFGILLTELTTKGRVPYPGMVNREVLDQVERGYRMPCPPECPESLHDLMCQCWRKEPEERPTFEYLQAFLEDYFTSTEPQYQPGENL

Compound `CN(C(=O)CN1CCOCC1)c1ccc2sc3c(-c4cccc5c(=O)cc(N6CC7CCC(C6)O7)oc45)cccc3c2c1` [NU5455] has an inhibition at 1 µM of 9.5%.
